Experimental data from patent US20230091561A1, “METHODS OF TREATING PRIMARY PROGRESSIVE MULTIPLE SCLEROSIS USING AN INHIBITOR OF BRUTON'S TYROSINE KINASE” (Genentech, Inc., priority 2020, published 2023).
Read-outs that look alike come from different tables or passages of the source. Values belong to the compound of their own block, whether it stands above or below them.

Columns and labels:
Fgr [1] = molecular target: T1, Fgr (Homo sapiens, UniProt P09769); assay: Kinase selectivity IC50, Fgr
RIPK2 = RIPK2 (Homo sapiens, UniProt O43353); assay: Kinase selectivity IC50, RIPK2
CSK = CSK (Homo sapiens, UniProt P41240); assay: Kinase selectivity IC50, CSK
LCK = LCK (Homo sapiens, UniProt P06239); assay: Kinase selectivity IC50, LCK
BRK = BRK (Homo sapiens, UniProt Q13882); assay: Kinase selectivity IC50, BRK
CDK8/cycC = molecular target: T2, CDK8/cycC (Homo sapiens, UniProt P49336); assay: Kinase selectivity IC50, CDK8/cycC; format: biochemical; conditions: unpublished
T2 construct: purchased

MKNK2 = MKNK2 (Homo sapiens, UniProt Q9HBH9); assay: Kinase selectivity IC50, MKNK2
FGFR1 = FGFR1 (Homo sapiens, UniProt P11362); assay: Kinase selectivity IC50, FGFR1
RET = RET (Homo sapiens, UniProt P07949); assay: Kinase selectivity IC50, RET
CK1e1 = CK1e1 (Homo sapiens, UniProt P49674); assay: Kinase selectivity IC50, CK1e1
MLK2 = MLK2 (Homo sapiens, UniProt Q02779); assay: Kinase selectivity IC50, MLK2
FLT3 = FLT3 (Homo sapiens, UniProt P36888); assay: Kinase selectivity IC50, FLT3
Src [2] = molecular target: T3, Src (Homo sapiens, UniProt P12931); set-up: purchased; conditions: footnote a (Crawford et al.); cited from earlier work
Fgr [3] = molecular target: T1, Fgr; set-up: purchased; conditions: footnote a (Crawford et al.); cited from earlier work
BMX [4] = molecular target: T4, BMX (Homo sapiens, UniProt P51813); assay: Kinase selectivity IC50, BMX
BLK = BLK (Homo sapiens, UniProt P51451); assay: Kinase selectivity IC50, BLK
TXK = TXK (Homo sapiens, UniProt P42681); assay: Kinase selectivity IC50, TXK
LYN = LYN (Homo sapiens, UniProt P07948); assay: Kinase selectivity IC50, LYN
HCK = HCK (Homo sapiens, UniProt P08631); assay: Kinase selectivity IC50, HCK
FRK = FRK (Homo sapiens, UniProt P42685); assay: Kinase selectivity IC50, FRK
BMX [5] = molecular target: T4, BMX; assay: Covalent reaction (kinact/Ki), real-time competition with a fluorescent active site ligand, BMX
SRM = SRM (Homo sapiens, UniProt Q9H3Y6); assay: Kinase selectivity IC50, SRM
TNK2 = TNK2 (Homo sapiens, UniProt Q07912); assay: Kinase selectivity IC50, TNK2
YES = YES (Homo sapiens, UniProt P07947); assay: Kinase selectivity IC50, YES
ERBB2 = ERBB2 (Homo sapiens, UniProt P04626); assay: Kinase selectivity IC50, ERBB2
Src [6] = molecular target: T3, Src; assay: Kinase selectivity IC50, Src

T1 sequence (P09769 whole entry): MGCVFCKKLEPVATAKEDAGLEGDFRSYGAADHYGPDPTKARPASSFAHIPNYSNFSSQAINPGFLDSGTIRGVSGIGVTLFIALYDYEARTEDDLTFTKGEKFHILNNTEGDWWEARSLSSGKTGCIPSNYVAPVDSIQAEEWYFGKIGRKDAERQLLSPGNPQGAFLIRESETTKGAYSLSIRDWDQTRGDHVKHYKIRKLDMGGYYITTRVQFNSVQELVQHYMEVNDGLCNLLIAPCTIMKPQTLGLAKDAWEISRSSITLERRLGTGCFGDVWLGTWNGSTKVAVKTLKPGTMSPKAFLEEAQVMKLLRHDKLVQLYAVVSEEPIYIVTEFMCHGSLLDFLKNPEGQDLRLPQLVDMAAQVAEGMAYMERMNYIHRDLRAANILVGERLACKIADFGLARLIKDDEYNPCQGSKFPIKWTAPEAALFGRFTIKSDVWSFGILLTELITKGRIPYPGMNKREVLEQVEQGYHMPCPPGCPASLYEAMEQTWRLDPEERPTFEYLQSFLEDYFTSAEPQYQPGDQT
T3 sequence (P12931 whole entry): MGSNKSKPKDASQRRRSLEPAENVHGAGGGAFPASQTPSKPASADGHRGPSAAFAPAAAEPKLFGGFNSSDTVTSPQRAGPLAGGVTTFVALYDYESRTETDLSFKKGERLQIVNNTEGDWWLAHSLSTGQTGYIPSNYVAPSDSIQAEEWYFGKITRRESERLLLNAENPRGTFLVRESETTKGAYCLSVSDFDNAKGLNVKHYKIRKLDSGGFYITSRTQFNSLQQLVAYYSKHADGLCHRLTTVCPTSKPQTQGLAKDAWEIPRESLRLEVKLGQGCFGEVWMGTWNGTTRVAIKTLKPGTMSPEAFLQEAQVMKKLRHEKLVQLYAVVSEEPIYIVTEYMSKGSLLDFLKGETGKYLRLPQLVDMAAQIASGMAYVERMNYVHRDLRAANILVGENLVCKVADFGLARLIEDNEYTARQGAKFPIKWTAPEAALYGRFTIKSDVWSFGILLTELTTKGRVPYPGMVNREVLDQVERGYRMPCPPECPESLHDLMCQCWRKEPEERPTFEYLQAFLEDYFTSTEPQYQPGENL
Sequence of RIPK2 (O43353 whole entry): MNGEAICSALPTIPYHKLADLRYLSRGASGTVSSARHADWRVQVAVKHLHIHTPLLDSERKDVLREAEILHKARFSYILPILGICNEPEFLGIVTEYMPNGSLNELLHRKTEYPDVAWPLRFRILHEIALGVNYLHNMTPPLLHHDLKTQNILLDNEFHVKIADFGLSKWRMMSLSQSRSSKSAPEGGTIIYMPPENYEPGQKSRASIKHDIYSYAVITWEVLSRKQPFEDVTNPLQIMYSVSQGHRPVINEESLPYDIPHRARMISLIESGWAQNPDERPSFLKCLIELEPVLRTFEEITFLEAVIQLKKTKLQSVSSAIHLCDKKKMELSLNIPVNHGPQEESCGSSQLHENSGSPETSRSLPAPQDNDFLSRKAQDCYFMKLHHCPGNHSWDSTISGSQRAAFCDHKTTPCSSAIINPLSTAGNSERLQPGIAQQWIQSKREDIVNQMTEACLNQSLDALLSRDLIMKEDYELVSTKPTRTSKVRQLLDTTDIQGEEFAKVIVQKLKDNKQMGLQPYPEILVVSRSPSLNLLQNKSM
T4 sequence (P51813 whole entry): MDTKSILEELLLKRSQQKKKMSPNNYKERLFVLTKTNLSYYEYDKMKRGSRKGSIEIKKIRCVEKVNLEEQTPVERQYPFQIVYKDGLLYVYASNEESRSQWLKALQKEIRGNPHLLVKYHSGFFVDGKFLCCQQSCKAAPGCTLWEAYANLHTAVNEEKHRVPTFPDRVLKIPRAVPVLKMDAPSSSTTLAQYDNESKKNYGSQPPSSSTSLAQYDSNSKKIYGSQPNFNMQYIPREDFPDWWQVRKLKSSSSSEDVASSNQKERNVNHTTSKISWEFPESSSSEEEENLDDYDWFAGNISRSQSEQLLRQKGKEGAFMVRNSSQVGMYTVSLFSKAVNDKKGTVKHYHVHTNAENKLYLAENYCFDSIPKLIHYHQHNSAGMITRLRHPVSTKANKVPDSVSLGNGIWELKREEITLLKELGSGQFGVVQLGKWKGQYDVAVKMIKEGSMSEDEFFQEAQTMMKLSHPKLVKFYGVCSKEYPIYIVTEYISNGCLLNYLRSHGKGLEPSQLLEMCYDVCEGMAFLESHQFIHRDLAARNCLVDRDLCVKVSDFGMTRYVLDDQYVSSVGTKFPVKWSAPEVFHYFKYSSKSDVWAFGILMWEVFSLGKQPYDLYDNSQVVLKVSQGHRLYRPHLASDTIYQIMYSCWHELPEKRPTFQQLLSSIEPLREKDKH
Sequence of BRK (Q13882 whole entry): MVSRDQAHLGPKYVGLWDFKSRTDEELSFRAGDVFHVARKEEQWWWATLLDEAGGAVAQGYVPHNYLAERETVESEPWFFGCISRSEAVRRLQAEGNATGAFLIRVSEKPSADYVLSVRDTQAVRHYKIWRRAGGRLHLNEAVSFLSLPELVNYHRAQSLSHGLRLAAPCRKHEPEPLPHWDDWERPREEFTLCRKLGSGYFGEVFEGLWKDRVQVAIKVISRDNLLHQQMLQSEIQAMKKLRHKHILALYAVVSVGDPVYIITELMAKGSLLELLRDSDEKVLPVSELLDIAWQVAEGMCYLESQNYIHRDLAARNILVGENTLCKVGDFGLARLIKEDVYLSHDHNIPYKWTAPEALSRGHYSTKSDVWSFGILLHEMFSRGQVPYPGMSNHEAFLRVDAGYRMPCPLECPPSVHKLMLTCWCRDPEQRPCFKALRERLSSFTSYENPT
Sequence of FGFR1 (P11362 22-822): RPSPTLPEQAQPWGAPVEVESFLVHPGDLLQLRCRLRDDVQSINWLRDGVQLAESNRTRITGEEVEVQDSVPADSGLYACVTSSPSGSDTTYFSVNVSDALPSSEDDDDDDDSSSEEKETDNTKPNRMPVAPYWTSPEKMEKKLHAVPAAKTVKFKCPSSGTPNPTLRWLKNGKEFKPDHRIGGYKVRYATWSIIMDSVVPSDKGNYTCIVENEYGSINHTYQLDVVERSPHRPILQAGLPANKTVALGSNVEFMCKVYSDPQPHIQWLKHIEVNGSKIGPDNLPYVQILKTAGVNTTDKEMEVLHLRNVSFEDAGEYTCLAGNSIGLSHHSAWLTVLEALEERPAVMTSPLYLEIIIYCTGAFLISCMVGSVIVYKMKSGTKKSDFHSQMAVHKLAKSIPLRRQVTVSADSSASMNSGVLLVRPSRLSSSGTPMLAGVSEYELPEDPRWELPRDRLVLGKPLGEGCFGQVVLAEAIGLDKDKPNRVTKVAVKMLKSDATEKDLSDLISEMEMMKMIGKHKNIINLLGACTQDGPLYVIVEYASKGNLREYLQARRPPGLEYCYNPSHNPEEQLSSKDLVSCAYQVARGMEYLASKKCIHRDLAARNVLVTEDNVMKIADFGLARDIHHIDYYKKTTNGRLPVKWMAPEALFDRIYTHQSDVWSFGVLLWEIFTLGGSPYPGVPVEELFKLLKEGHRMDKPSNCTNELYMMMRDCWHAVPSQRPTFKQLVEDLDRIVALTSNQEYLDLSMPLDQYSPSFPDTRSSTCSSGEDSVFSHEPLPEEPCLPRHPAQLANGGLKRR
Sequence of TNK2 (Q07912 whole entry): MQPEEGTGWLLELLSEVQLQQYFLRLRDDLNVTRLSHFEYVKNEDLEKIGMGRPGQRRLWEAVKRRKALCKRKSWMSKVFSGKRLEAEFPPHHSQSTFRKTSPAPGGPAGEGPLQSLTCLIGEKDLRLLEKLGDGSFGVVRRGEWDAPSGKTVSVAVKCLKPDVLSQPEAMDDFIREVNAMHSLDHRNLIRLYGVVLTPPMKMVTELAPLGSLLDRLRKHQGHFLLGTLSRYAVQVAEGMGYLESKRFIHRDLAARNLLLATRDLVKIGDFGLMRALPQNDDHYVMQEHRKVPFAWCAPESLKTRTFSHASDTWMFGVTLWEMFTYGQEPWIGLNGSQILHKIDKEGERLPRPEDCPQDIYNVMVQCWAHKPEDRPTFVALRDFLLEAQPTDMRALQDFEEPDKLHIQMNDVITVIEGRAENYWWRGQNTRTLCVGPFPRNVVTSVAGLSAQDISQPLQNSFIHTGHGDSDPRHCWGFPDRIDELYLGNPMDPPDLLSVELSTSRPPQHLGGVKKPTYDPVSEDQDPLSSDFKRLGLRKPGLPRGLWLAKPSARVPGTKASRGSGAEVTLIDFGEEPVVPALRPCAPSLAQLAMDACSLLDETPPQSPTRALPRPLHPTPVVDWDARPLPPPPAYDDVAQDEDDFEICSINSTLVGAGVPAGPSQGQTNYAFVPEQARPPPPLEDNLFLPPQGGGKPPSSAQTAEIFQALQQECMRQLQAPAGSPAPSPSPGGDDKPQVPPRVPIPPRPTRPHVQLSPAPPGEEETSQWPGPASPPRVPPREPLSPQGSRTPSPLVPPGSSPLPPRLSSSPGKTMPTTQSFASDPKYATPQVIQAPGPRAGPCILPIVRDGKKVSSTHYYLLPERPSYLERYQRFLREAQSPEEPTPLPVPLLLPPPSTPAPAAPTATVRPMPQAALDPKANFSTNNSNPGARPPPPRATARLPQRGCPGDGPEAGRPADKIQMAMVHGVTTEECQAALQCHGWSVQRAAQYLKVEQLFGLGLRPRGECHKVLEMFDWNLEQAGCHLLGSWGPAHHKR
Sequence of CK1e1 (P49674 whole entry): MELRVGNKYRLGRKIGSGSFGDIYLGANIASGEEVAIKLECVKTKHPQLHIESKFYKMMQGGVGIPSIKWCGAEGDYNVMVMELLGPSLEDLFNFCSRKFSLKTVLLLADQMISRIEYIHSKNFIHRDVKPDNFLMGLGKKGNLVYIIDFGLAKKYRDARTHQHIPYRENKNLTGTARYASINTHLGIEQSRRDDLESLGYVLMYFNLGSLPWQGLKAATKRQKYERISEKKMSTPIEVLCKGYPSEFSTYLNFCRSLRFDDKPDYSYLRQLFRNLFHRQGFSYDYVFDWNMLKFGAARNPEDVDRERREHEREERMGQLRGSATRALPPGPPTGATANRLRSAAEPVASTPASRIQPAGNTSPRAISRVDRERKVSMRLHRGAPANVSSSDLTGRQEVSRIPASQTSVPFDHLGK

IC50 (Fgr [1]): 2330 nM
IC50 (RIPK2): 4330 nM
IC50 (CSK): 7820 nM
IC50 (LCK): 3800 nM
IC50 (BRK): 6020 nM
IC50 (CDK8/cycC): 3500 nM
IC50 (MKNK2): 4130 nM
IC50 (FGFR1): 4150 nM
IC50 (RET): 8630 nM
IC50 (CK1e1): 1450 nM
IC50 (MLK2): 3980 nM
IC50 (FLT3): 2250 nM
Compound: C=CC(=O)N1CCC(CNc2ncnc(N)c2-c2ccc(Oc3ccccc3)cc2)CC1 [Evobrutinib]

Compound: C[C@H]1CN(C2COC2)CCN1c1ccc(Nc2cc(-c3ccnc(N4CCn5c(cc6c5CC(C)(C)C6)C4=O)c3CO)cn(C)c2=O)nc1 [Fenebrutinib]
IC50 (Src [2]): 302 nM
IC50 (Fgr [3]): 387 nM

IC50 (BMX [4]): 2.5 nM
IC50 (BLK): 3 nM
IC50 (Fgr [1]): 33 nM
IC50 (TXK): 3.9 nM
IC50 (LYN): 194 nM
IC50 (HCK): 91 nM
IC50 (RIPK2): 125 nM
IC50 (FRK): 231 nM
IC50 (CSK): 87 nM
Ki (BMX [5]): 42 nM
IC50 (BRK): 44 nM
IC50 (SRM): 116 nM
IC50 (TNK2): 847 nM
IC50 (YES): 16 nM
IC50 (ERBB2): 25 nM
IC50 (Src [6]): 54 nM
Compound: C=CC(=O)N1CCC[C@@H](n2c(=O)n(-c3ccc(Oc4ccccc4)cc3)c3c(N)nccc32)C1 [Tolebrutinib]
